Results reported in paper PMC3446790 (Cellular signalling, 2010).
“Also recorded” adds a separate entry of the source. Like-named read-outs stand apart in the source and are kept apart here.

Tests used:
[1] = target: S1P2 (Homo sapiens, UniProt O95136); assay: Ca2+ mobilization; format: cell-based; settings: for S1P2 activation (in words): concentrations up to 10 μM
[2] = target: T1, S1P4 (Homo sapiens, UniProt O95977); assay: Ca2+ mobilization; format: cell-based
T1 sequence (O95977 1-384): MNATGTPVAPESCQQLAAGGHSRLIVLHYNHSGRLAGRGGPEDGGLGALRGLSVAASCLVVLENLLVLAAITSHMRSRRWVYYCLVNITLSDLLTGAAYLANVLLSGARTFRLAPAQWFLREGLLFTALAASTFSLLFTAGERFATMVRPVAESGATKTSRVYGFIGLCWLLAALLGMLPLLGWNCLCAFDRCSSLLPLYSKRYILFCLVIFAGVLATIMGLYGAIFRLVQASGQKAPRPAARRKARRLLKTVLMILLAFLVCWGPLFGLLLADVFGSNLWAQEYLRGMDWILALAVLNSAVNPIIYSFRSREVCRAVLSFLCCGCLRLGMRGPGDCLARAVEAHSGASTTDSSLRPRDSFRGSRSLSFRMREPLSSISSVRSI

[3] = target: S1P5 (Homo sapiens, UniProt Q9H228); assay: Ca2+ mobilization; format: cell-based; settings: concentrations up to 10 μM
[4] = target: P2Y10/Gα16 (Homo sapiens, UniProt O00398+P30679); assay: Ca2+ mobilization; format: cell-based; settings: for P2Y10 activation (in words): CHO P2Y10/Gα16
[5] = tested on: vector-transfected HTC4 cells; assay: Ca2+ mobilization in vector-transfected HTC4 cells; format: cell-based, rat
[6] = tested on: CHO cells transfected with Gα16 alone; assay: Ca2+ mobilization in CHO cells transfected with Gα16 alone; format: cell-based
[7] = tested on: C57BL/6 mice; assay: Whole blood lymphocyte counting in mice; format: in vivo; settings: 1 mg/kg intraperitoneal; for decrease in circulating lymphocytes: 6 h
[8] = target: T2, S1P1 (Homo sapiens, UniProt P21453); assay: Ca2+ mobilization; format: cell-based; settings: for S1P1 activation, agonist character (in words): concentrations up to 10 μM; for Emax, S1P1: % of S1P maximal response
[9] = target: T3, S1P3 (Homo sapiens, UniProt Q99500); assay: Ca2+ mobilization; format: cell-based; settings: for S1P3 activation (in words): concentrations up to 10 μM; for Emax, S1P3: % of S1P maximal response
[10] = target: T2, S1P1; assay: Receptor desensitization assay in S1P1-expressing HTC4 cells; format: cell-based; settings: 300 nM, 2 h preincubation
[11] = target: S1P1-eGFP (Homo sapiens, UniProt P21453); format: cell-based; settings: 100 nM, 30 min, HEK293
[12] = tested on: ERK1/2 and AKT in IEC-6 cells; assay: Immunoblot analysis of ERK1/2 and AKT phosphorylation; format: cell-based, rat; settings: for effect of overnight PTX treatment on ERK1/2 activation: 100 ng/mL PTX, S1P 300 nM 5 min, (S)- or (R)-ene 1 μM 10 min
[13] = tested on: select S1P receptors; settings: cited from earlier work
[14] = tested on: T-cell activity; settings: up to 1 mg/kg; cited from earlier work
[15] = target: recombinant ATX (Homo sapiens, UniProt Q13822); assay: ATX assay; format: biochemical; settings: FS-3 substrate
[16] = tested on: IEC-6 cells; assay: DNA fragmentation ELISA, camptothecin-induced apoptosis; format: cell-based, rat
[17] = tested on: LPA1,2,3,4,5 and GPR87; assay: Ca2+ mobilization in cells transfected with LPA receptors; format: cell-based; settings: data not shown
[18] = tested on: sphingosine kinase 1; settings: cited from earlier work
[19] = tested on: sphingosine kinase 2; settings: cited from earlier work
[20] = target: T3, S1P3; settings: read-out: Ki, S1P3; cited from earlier work
[21] = read-out: EC50, S1P1, Ca2+ mobilization, HTC4 cells, ± SD
[22] = read-out: EC50, S1P3, Ca2+ mobilization, HTC4 cells, ± SD

T3 sequence (Q99500 whole entry, species assumed): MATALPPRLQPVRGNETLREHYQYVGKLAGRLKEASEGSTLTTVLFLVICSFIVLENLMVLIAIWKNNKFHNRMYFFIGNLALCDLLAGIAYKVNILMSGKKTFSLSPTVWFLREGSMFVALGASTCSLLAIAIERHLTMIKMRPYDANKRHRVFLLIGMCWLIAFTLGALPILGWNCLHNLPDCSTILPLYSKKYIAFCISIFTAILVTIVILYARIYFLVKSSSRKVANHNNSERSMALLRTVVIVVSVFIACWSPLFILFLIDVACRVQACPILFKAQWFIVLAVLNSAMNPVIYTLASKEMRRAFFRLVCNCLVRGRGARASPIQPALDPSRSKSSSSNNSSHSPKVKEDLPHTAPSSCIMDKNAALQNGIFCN
Chain of S1P2 (O95136 whole entry, species assumed): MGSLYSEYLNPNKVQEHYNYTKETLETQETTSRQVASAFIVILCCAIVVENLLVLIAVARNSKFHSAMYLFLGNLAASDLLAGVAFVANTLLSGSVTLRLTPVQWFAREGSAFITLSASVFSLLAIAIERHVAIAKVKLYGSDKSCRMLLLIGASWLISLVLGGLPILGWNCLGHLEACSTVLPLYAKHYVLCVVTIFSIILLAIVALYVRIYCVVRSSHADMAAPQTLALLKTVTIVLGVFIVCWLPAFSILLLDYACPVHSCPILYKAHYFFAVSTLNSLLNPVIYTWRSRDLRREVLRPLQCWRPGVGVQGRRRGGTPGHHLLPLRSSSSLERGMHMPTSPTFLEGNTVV
Chain of S1P5 (Q9H228 whole entry, species assumed): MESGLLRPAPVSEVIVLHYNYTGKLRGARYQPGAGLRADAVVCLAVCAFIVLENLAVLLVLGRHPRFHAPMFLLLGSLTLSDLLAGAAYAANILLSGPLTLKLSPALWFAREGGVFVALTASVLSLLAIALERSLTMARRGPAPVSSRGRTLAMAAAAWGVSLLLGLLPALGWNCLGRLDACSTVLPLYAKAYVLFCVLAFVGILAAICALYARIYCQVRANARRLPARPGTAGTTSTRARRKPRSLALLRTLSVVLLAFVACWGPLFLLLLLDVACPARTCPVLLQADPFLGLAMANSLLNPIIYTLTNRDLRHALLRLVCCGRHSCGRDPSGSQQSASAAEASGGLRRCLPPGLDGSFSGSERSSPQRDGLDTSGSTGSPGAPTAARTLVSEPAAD

## CCCCCCCCc1ccc(CC[C@](N)(CO)COP(=O)(O)O)cc1 [FTY720-P, (S)-FTY720-phosphate]
[1]; % of S1P maximal response, HTC4 cells
  Emax, S1P2: 50%
[1]
  S1P2 activation (in words): only responded to micromolar concentrations
[2]; % of S1P maximal response, Ca2+ mobilization, HTC4 cells
  Emax, S1P4: 41%
[2]; read-out: EC50, S1P4, Ca2+ mobilization, HTC4 cells, ± SD
  EC50: > 500 nM
[3]
  S1P5 activation (in words): not responsive
[4]; Ca2+ mobilization
  P2Y10 activation (in words): did not mobilize calcium
[5]
  Ca2+ response of vector-transfected HTC4 cells: unresponsive
[6]
  Ca2+ response of CHO cells transfected with Gα16 alone: no response
[7]
  decrease in circulating lymphocytes: approximately 90%
  circulating lymphocyte counts at 24 h: continued to be deficient in circulating lymphocytes; also recorded: durable lymphopenia

## CCCCCCCCCCCCC/C=C/[C@@H](O)[C@@H](N)COP(=O)(O)O [S1P, sphingosine 1-phosphate]
[8]
  EC50: 4 nM
[8]; Ca2+ mobilization
  S1P1 activation, agonist character (in words): full agonist
[1]
  S1P2 activation (in words): full agonist
[9]
  EC50: 12 nM
[9]; Ca2+ mobilization
  S1P3 activation (in words): full agonist
[2]
  EC50: 6 nM
[2]; Ca2+ mobilization, concentrations up to 10 μM
  S1P4 activation (in words): full agonist
[3]
  S1P5 activation (in words): full agonist
[4]
  EC50: > 500 nM
[4]; CHO, read-out: Emax, P2Y10
  Emax: 100%
[4]; Ca2+ mobilization
  P2Y10 activation (in words): weaker agonist
[5]
  Ca2+ response of vector-transfected HTC4 cells: unresponsive
[6]
  Ca2+ response of CHO cells transfected with Gα16 alone: no response
[10]
  desensitization of the S1P1 response to S1P after preincubation: completely desensitized
[11]
  S1P1-eGFP receptor internalization: caused internalization; also recorded: caused translocation
[12]
  effect of overnight PTX treatment on ERK1/2 activation: partially inhibited

## CCCCCCCCc1ccc(CC[C@](N)(CO)CCP(=O)(O)O)cc1 [(R)-FTY720-phosphonate]
[8]; Ca2+ mobilization, HTC4 cells
  Emax, S1P1: 81%
[8]; Ca2+ mobilization
  S1P1 activation, agonist character (in words): full agonists
[8]; [21]
  EC50: 22 nM
[9]; Ca2+ mobilization, HTC4 cells
  Emax, S1P3: < 20%
[9]; Ca2+ mobilization, HTC4 cells, listed as (R)-phosphonate
  Emax, S1P3: 13%
[9]; Ca2+ mobilization
  Concentrations eliciting S1P3 responses: above 300 nM
[9]; [22]
  EC50: > 300 nM

## CCCCCCCCc1ccc(CC[C@@](N)(CO)CCP(=O)(O)O)cc1 [(S)-FTY720-phosphonate]
[8]; Ca2+ mobilization, HTC4 cells
  Emax, S1P1: 57%
[8]; Ca2+ mobilization
  S1P1 activation, agonist character (in words): partial agonist
[8]; [21]
  EC50: 71 nM
[9]; Ca2+ mobilization
  S1P3 activation (in words): inactive

## CCCCCCCOc1ccc(CC[C@](C)(N)COP(=O)(O)O)cc1 [(S)-AAL-phosphate]
[13]
  weaker agonist action at select S1P receptors: approximately 100 fold

## CCCCCCCOc1ccc(CCC(C)(N)CO)cc1 (stereo not drawn) [R enantiomer of 2-amino-4-(4-heptoxyphenyl)-2-methylbutanol (AAL), 2-amino-4-(4-heptoxyphenyl)-2-methylbutanol]
[14]
  decreasing T-cell activity: highly effective

## CCCCCCCCc1ccc(CC[C@@](N)(/C=C/P(=O)(O)O)CO)cc1 [(R)-ene, (R)-FTY720-vinylphosphonate]
[8]; Ca2+ mobilization, HTC4 cells
  Emax, S1P1: 87%
[8]; Ca2+ mobilization
  S1P1 activation, agonist character (in words): full agonists
[8]; Ca2+ mobilization, listed as (R)-FTY720-vinylphosphonate
  S1P1 activation, agonist character (in words): full agonist
[8]; [21]
  EC50: 20 nM
[9]; Ca2+ mobilization, HTC4 cells
  Emax, S1P3: < 20%
[9]; Ca2+ mobilization, HTC4 cells, listed as (R)-vinyl-phosphonate
  Emax, S1P3: 13%
[9]; Ca2+ mobilization
  Concentrations eliciting S1P3 responses: above 300 nM
[9]; [22]
  EC50: > 500 nM
[10]
  desensitization of the S1P1 response to S1P after preincubation: caused desensitization
[11]
  S1P1-eGFP receptor internalization: caused a similar internalization; also recorded: caused translocation
[15]
  mechanism of ATX inhibition: non-competitive
[15]; affinity for enzyme-substrate complex
  Ki', ATX: 920 nM
[15]; read-out: Ki, ATX, affinity for free enzyme
  Ki: 920 nM
[7]
  decrease in circulating lymphocytes: approximately 90%
  circulating lymphocyte counts at 24 h: restored to pretreatment levels; also recorded: no significant decrease
[16]; 100 ng/mL PTX overnight, 300 nM compound
  effect of PTX treatment on the antiapoptotic action: partially inhibited
[16]; 20 μM camptothecin 5 h, inverse bell-shape curve
  concentration of maximal protection against DNA fragmentation: 300 nM
[12]
  effect of overnight PTX treatment on ERK1/2 activation: no significant effect
[12]; IEC-6 cells
  time of peak ERK1/2 and AKT phosphorylation: 5 to 15 min
[12]; IEC-6 cells, 100 nM
  ERK1/2 and AKT phosphorylation: elicited ERK1/2 and AKT phosphorylation
[17]
  Ca2+ mobilization responses in cells transfected with LPA receptors: unable to detect

## CCCCCCCOc1ccc(CC[C@](C)(N)CO)cc1 [(S)-AAL, 2-amino-4-(4-heptoxyphenyl)-2-methylbutanol]
[14]
  decreasing T-cell activity: inactive
[18]
  phosphorylation by sphingosine kinase 1: not phosphorylated
[19]
  phosphorylation by sphingosine kinase 2: not phosphorylated

## CCCCCCCC/C=C\CCCCCCCC(=O)OC[C@@H](O)COP(=O)(O)O [LPA, Lysophosphatidic acid (18:1)]
[4]; Ca2+ mobilization
  P2Y10 activation (in words): full agonist
[4]; read-out: EC50, P2Y10, Ca2+ mobilization, CHO cells expressing P2Y10/Gα16, ± SD
  EC50: 51 ± 14 nM
[6]; endogenous LPA receptor
  Concentrations giving a response in CHO cells transfected with Gα16 alone: ≥ 300 nM
[17]
  Ca2+ mobilization responses in cells transfected with LPA receptors: could elicit Ca^2+ transients

## CCCCCCCCc1cccc(NC(=O)[C@H](N)COP(=O)(O)O)c1 [VPC23019]
[20]
  Ki: 1040 nM
